{"source": "patent US11028095B2", "about": "“Spiro-lactam and bis-spiro-lactam NMDA receptor modulators and uses thereof” (Aptinyx Inc., priority 2016, dated 2021)", "key": {"Plasma stability (Rat)": {"assay": "Plasma stability (Rat)", "assay_type": "in vitro ADME", "description": "(§1) Plasma stability of disclosed compounds was investigated. The following table indicates the percent of compound remaining after 60 minutes."}, "[1]": {"biological_target": "T1, NMDAR2D expressing HEK cell membranes (Homo sapiens, UniProt O15399+Q05586)", "T1 construct": "expressed in transfected cells; host or cells: HEK cells (membrane extract)", "T1 sequence (O15399 28-1336, other chains not shown)": "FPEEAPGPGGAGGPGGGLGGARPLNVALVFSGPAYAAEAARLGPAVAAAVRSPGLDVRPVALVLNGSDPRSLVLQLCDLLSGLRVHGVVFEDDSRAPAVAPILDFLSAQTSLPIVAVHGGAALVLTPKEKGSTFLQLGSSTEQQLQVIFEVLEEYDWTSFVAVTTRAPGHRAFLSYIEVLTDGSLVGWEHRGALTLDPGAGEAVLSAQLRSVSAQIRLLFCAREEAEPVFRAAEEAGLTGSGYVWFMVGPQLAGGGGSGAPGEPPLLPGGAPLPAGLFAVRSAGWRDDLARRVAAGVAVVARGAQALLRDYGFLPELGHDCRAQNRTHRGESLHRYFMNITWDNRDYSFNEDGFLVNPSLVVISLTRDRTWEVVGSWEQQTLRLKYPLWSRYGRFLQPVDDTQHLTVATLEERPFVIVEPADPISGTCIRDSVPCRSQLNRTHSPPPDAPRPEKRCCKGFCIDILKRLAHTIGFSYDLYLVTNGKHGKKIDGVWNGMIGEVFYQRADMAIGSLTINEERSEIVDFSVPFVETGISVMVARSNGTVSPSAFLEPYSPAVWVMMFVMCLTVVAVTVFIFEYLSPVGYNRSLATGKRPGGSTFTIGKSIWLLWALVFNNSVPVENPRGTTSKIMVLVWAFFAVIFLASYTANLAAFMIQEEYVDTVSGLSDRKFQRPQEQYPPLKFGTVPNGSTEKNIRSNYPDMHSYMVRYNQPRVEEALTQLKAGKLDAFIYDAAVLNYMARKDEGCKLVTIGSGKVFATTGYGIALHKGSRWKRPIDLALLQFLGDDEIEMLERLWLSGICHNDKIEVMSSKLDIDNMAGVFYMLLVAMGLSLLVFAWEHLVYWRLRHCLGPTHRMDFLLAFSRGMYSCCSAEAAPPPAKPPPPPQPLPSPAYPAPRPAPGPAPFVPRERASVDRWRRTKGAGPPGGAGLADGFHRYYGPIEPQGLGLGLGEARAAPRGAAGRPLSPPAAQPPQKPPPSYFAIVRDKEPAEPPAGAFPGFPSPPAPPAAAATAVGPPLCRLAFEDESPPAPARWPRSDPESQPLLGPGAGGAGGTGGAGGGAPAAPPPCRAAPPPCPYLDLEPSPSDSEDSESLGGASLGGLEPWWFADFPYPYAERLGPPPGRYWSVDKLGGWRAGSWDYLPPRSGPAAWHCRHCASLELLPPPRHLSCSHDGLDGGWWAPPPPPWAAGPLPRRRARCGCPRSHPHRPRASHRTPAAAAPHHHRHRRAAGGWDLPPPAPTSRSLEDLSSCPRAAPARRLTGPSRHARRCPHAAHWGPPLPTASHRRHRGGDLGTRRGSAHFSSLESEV", "assay": "NMDAR agonist assay, [3H]MK-801 binding, NMDAR2D", "assay_type": "biochemical", "description": "(§2) (nonequilibrium conditions).\n(§3) The baseline value was determined from the best fit curve of the DPM values modeled using the GraphPad program and the log(agonist) vs. response(three parameters) algorithm was then subtracted from all points in the dataset."}, "IV pharmacokinetics": {"assay": "IV pharmacokinetics", "assay_type": "in vivo", "conditions": "rat, in vivo, Sprague Dawley rats, 2 mg/kg, normal saline", "description": "Sprague Dawley rats were dosed intravenously using a normal saline formulation containing 2 mg/kg of the compounds identified in the below table. The table below summarizes the results of the IV pharmacokinetics."}, "Plasma stability (Human)": {"assay": "Plasma stability (Human)", "assay_type": "in vitro ADME", "description": "as §1"}, "[2]": {"biological_target": "T2, NMDAR2C expressing HEK cell membranes (Homo sapiens, UniProt Q05586+Q14957)", "T2 construct": "expressed in transfected cells; host or cells: HEK cells (membrane extract)", "T2 sequence (Q14957 20-1233, other chains not shown)": "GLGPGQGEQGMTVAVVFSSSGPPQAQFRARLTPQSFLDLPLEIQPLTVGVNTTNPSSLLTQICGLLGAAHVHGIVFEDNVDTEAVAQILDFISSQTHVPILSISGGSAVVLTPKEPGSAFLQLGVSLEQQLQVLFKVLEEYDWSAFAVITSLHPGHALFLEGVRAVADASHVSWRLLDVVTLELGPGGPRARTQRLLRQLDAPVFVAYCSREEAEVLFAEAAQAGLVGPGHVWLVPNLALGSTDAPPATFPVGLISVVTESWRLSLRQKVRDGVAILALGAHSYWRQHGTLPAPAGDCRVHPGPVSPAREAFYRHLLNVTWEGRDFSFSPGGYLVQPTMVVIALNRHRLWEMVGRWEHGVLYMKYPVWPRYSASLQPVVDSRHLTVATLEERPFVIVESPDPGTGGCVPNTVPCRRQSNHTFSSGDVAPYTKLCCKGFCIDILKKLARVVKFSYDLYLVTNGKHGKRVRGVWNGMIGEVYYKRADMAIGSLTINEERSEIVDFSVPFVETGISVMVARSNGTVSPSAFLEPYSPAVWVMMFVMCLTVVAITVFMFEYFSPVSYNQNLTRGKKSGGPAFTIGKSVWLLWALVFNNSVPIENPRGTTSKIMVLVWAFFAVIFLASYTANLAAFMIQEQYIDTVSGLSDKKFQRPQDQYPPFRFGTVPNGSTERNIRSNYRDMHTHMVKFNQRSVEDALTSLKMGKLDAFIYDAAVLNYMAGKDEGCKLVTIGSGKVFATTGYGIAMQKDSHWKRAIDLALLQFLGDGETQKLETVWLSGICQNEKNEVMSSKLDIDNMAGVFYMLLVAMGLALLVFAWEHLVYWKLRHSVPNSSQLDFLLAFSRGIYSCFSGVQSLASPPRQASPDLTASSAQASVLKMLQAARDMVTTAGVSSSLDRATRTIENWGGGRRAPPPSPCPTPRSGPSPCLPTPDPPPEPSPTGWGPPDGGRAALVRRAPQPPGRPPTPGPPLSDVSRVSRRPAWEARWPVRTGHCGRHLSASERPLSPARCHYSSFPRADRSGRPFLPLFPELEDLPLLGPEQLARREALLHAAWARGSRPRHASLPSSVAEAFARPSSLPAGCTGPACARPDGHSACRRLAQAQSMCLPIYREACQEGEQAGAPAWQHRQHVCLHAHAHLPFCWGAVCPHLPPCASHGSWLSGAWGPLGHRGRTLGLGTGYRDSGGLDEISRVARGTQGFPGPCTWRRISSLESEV", "assay": "NMDAR agonist assay, [3H]MK-801 binding, NMDAR2C", "assay_type": "biochemical", "description": "as §2, §3"}, "[3]": {"assay": "Oral pharmacokinetics (plasma, brain, CSF)", "assay_type": "in vivo", "conditions": "Sprague Dawley rats, per os, 10 mg/kg", "description": "In another experiment, Sprague Dawley rats were dosed per os using a normal saline formulation containing 10 mg/kg of the compounds identified in the table below. Plasma, brain, and CSF samples were analyzed at various time points over a 24 hour period. The table below summarizes the results of the oral pharmacokinetics."}, "[4]": {"test_system": "Sciatic nerve chronic constriction nerve injury", "assay": "Bennett nerve injury assay (mechanical analgesia, paw withdrawal threshold)", "assay_type": "in vivo, Sprague Dawley rats", "description": "The Bennett model of mechanical analgesia is used to assess the analgesic effects of compounds as measured by paw withdrawal threshold. Bennett G J, Xie Y K, “A peripheral mononeuropathy in rat that produces disorders of pain sensation like those seen in man,” Pain 33:87-107, 1988. […] Vehicle animals receive the surgery and then receive vehicle rather than test compound. Animals were tested 1 hr, 24 h and 1 wk post-test compound or vehicle administration.\nMale 2-3 month old Sprague Dawley rats were used. Harlan was the supplier for all studies. Rats were housed in Lucite cages with aspen wood chip bedding, maintained on a 12:12 light:dark cycle (lights on at 5 AM), and given ad libitum access to Purina lab chow (USA) and tap water throughout the study.\nRats were anesthetized using inhaled isoflurane (2.5%). Sciatic nerve chronic constriction nerve injury surgery was performed as previously described (Bennett and Xie, 1988). An incision (˜1.5 cm in length) was made with a scalpel blade dorsally through skin on the right hind limb, parallel and posterior to femur. Using a small pointed hemostat, the biceps femoris and gluteus superficialis muscles were separated. Using curved blunt forceps, the common sciatic nerve was isolated and exposed. For the mechanical analgesia studies, the whole sciatic nerve was ligated. Using hemostats/forceps and chromic gut (5-0), the nerve was loosely ligated with a square knot; 3 ligatures, 1 mm apart were placed on the nerve. […] Testing occurred approximately 2 weeks post-surgery.\nDuring testing, rats were acclimated to the surface of a suspended wire mesh grid (1 cm×1 cm, with the wire being 0.3 cm in diameter) for 15-20 min Starting from the smallest, each Von Frey filament was pressed perpendicularly to the plantar surface of the affected (ipsilateral) hind paw until slightly bent and then held for 6 second. If an obvious hind paw withdrawal or a flinching behavior immediately after the withdrawal of the filament was not observed, the next larger filament was used in the same manner. In case of a response, a lower filament was used. This was repeated until six responses were collected.\nFor all studies, animals were baselined prior to study start to test for allodynia (defined as a paw withdrawal threshold under 5). A subset of animals was tested with gabapentin (150 mg/kg, PO) to ensure at least 50% analgesia. Once it was confirmed animals were ready for study initiation, animals were balanced across groups. All study investigators were blind to treatment conditions. Animals were dosed with 0.1, 1 or 10 mg/kg of test compound via oral gavage (PO), control sets of animals were dosed with gabapentin (150 mg/kg, PO) or vehicle (0.5% Na-CMC in 0.9% sterile saline, PO). Testing occurred 1 h post-dosing with animals retested 24 hrs and 1 week post-dosing. The percent analgesia calculations for each animal were made using the following equation: % analgesia=[(log(x)−y)/((log (z)−y)]*100, where x=the paw withdrawal threshold for the drug-treated animal in grams, y=the average of the log(x) values for the vehicle treated group, and z=the paw withdrawal threshold for naïve animals in grams (historical value of 15 used). The results for Compound AD, where the percentage of analgesia is measured at 1 hour, 24 hours, and 1 week after compound administration are as follows: for 0.1 mg/kg dose: 37.8% at 1 h, 29.7% at 24 h, and 63.1% at 1 wk; for 1 mg/kg dose: 48.8% at 1 h, 20.6% at 24 h, and 19.8% at 1 wk; and for 10 mg/kg dose: 70.3% at 1 h, 38.8% at 24 h, and 11.3% at 1 wk."}, "[5]": {"assay": "Microsomal stability (Human)", "assay_type": "in vitro ADME", "conditions": "human microsomes", "description": "Microsomal stability of disclosed compounds was investigated. The following table indicates the percent of compound remaining after 60 minutes."}}}
{"molecule": "CC(C)CN1[C@@]2(CC[C@@]13CNC3=O)CNC2=O", "note": "[Compound AD, 5-isobutyl-2,5,8-triazadispiro[3.1.36.24]undecane-1,7-dione]", "values": [{"measurement": "Plasma (Rat): percent of compound remaining after 60 minutes", "setting": "Plasma stability (Rat)", "result": 88, "unit": "%"}, {"measurement": "EC50", "setting": "[1]; NMDAR2D: log EC50, 50 μM glutamate, [3H]MK-801 binding", "result": "> 100", "unit": "nM"}, {"measurement": "Emax", "setting": "[1]; read-out: NMDAR2D: % maximal [3H]MK-801 binding relative to 1 mM glycine", "result": 0, "unit": "%"}, {"measurement": "AUC(0-t)", "setting": "IV pharmacokinetics", "result": 4710, "unit": "ng·h/mL"}, {"measurement": "clearance", "setting": "IV pharmacokinetics", "result": 7.01, "unit": "mL/min/kg"}, {"measurement": "half-life", "setting": "IV pharmacokinetics", "result": 2.27, "unit": "h"}, {"measurement": "C0", "setting": "IV pharmacokinetics; read-out: C0", "result": 2800, "unit": "ng/mL"}, {"measurement": "Vd", "setting": "IV pharmacokinetics; read-out: Vss", "result": 0.92, "unit": "L/kg"}, {"measurement": "Plasma (Human): percent of compound remaining after 60 minutes", "setting": "Plasma stability (Human)", "result": 83, "unit": "%"}, {"measurement": "EC50", "setting": "[2]; NMDAR2C: log EC50, 50 μM glutamate, [3H]MK-801 binding", "result": "< 1", "unit": "nM"}, {"measurement": "Emax", "setting": "[2]; read-out: NMDAR2C: % maximal [3H]MK-801 binding relative to 1 mM glycine", "result": "< 100", "unit": "%"}, {"measurement": "CSF Cmax", "setting": "[3]; CSF", "result": 1965.2, "unit": "ng/mL"}, {"measurement": "Brain Cmax", "setting": "[3]; brain", "result": 1143.2, "unit": "ng/mL"}, {"measurement": "AUC(0-t)", "setting": "[3]; rat, plasma, po", "result": 19300, "unit": "ng·h/mL"}, {"measurement": "bioavailability", "setting": "[3]; rat, plasma, po", "result": 82, "unit": "%"}, {"measurement": "Tmax", "setting": "[3]; rat, plasma, po, normal saline, read-out: Tmax", "result": 0.33, "unit": "h"}, {"measurement": "Cmax", "setting": "[3]; rat, po, plasma, read-out: Cmax", "result": 8560, "unit": "ng/mL"}, {"measurement": "percentage of analgesia", "setting": "[4]; 0.1 mg/kg PO, 1 wk after administration", "result": 63.1, "unit": "%"}, {"measurement": "percentage of analgesia", "setting": "[4]; 0.1 mg/kg PO, 1 h after administration", "result": 37.8, "unit": "%"}, {"measurement": "percentage of analgesia", "setting": "[4]; 0.1 mg/kg PO, 24 h after administration", "result": 29.7, "unit": "%"}, {"measurement": "percentage of analgesia", "setting": "[4]; 1 mg/kg PO, 1 wk after administration", "result": 19.8, "unit": "%"}, {"measurement": "percentage of analgesia", "setting": "[4]; 1 mg/kg PO, 1 h after administration", "result": 48.8, "unit": "%"}, {"measurement": "percentage of analgesia", "setting": "[4]; 1 mg/kg PO, 24 h after administration", "result": 20.6, "unit": "%"}, {"measurement": "percentage of analgesia", "setting": "[4]; 10 mg/kg PO, 1 wk after administration", "result": 11.3, "unit": "%"}, {"measurement": "percentage of analgesia", "setting": "[4]; 10 mg/kg PO, 1 h after administration", "result": 70.3, "unit": "%"}, {"measurement": "percentage of analgesia", "setting": "[4]; 10 mg/kg PO, 24 h after administration", "result": 38.8, "unit": "%"}, {"measurement": "Microsomal (Human): percent of compound remaining after 60 minutes", "setting": "[5]", "result": 100, "unit": "%"}]}
